The values below come from US20160046618A1, “Cyclopropyl Fused Thiazin-2-Amine Compounds as Beta-Secretase Inhibitors and Methods of Use” (AMGEN INC., priority 2014, published 2016).

Structures are written as SMILES.

One test addresses human recombinant BACE2 (Homo sapiens (Human), UniProt Q9Y5Z0). As to the kind of experiment: In vitro enzymatic BACE2 FRET assay. The test is classed as biochemical. Particulars: BACE2 FRET enzyme assay; read-out: IC50 IP (μM) BACE2 enzyme. On the procedure: These recombinant proteins were further purified using Ni-NTA affinity chromatography (Qiagen). […] This assay is effectively started by the addition of FRET substrate (50 nM) and the combination is incubated for one hour. The FRET assay is terminated by addition of Tris buffer, which raises the pH to neutrality, and the fluorescence is determined. The FRET substrate is a peptide with commercially available fluorophore and quencher, on opposite sides of the BACE cleavage site. Proteolytic cleavage of the FRET substrate releases quenching of fluorescence (excitation 488 nm and emission 590 nm).

In test [1] the test system is Aβ40 in conditioned medium of cells stably expressing Amyloid Precursor Protein (APP). The test is described as follows: In vitro BACE-1 cell-based assay (Aβ40 sandwich ELISA). Particulars: BACE1 cell-based assay; read-out: IC50 IP (μM) BACE1 cell. In outline: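 Read-out: time-resolved fluorescence (Streptavidin-Europium) of Aβ40 captured by pAb40 and detected with biotinylated 6E10 from supernatants of APP-stable cells. Cells were exposed to compound for 24 h, 10-point dose response, top dose 100 μM or 10 μM, 0.1% DMSO. IC50 fitted to percent of control.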

The target of a further test is Recombinant Cat D (Homo sapiens (Human), UniProt P07339). As to the kind of experiment: In vitro enzymatic Cathepsin D (Cat D) FRET assay. It is filed as biochemical. Particulars: Cathepsin D FRET enzyme assay; read-out: IC50 IP (μM) CatD. In outline:
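Human Cat D expressed in CHO cells was incubated for one hour in 0.05 M citrate pH 3.5, 5 mM CHAPS, 10% DMSO final, with 20 nM quenched FRET peptide substrate. Reactions were stopped with Tris buffer raising pH to neutrality. Cleavage was read as fluorescence at excitation 500 nm, emission 580 nm.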

The target of the next test is human recombinant BACE1 (Homo sapiens (Human), UniProt P56817). The test is described as follows: In vitro enzymatic BACE1 FRET assay. The settings on record: BACE1 FRET enzyme assay; read-out: IC50 IP (μM) BACE1 enzyme. It is filed as biochemical. In outline:
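Read-out: dequenched fluorescence, excitation 488 nm, emission 590 nm, after proteolysis of a quenched peptide spanning the BACE cleavage site. Substrate at 50 nM, 1 h incubation, termination by Tris addition to neutral pH.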

Recombinant Cat D, sequence (P07339 65-412): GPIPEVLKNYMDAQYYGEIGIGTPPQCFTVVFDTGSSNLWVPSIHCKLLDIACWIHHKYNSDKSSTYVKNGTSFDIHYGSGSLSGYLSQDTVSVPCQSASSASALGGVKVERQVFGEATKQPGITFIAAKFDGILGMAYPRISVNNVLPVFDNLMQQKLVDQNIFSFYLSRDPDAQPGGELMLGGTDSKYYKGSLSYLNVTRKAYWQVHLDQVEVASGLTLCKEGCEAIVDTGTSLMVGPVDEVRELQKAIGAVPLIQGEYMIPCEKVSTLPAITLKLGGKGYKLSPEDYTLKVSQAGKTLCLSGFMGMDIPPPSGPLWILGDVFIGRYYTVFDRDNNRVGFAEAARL
human recombinant BACE1, sequence (P56817 46-501): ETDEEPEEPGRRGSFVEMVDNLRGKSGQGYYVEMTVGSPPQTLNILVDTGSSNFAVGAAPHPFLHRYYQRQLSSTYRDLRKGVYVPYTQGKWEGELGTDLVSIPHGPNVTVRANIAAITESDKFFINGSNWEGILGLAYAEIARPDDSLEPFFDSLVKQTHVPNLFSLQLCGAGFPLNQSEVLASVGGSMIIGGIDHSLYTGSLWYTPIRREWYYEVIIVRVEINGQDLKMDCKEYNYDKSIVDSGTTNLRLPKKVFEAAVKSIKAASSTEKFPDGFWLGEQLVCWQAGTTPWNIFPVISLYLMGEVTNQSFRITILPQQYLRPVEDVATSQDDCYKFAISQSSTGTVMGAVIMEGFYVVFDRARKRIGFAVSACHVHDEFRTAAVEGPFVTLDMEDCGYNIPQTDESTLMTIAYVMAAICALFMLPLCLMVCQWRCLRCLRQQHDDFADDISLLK
human recombinant BACE2, sequence (Q9Y5Z0 63-518): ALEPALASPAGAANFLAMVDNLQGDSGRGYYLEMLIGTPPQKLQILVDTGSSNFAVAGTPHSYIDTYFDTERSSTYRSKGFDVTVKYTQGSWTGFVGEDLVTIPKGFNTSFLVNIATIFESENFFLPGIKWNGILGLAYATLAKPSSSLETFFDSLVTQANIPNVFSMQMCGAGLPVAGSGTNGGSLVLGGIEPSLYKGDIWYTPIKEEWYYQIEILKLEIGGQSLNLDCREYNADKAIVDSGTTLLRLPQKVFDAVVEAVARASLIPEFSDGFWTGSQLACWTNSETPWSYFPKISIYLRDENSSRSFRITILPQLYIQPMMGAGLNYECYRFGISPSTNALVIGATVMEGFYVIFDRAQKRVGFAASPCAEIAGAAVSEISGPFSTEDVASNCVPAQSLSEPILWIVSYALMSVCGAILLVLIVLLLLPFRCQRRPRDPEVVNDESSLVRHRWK

Regarding `C[C@]1(c2cc(Nc3ncnc4cc(C#N)cnc34)cc(F)c2F)N=C(N)S[C@@]2(CO)C[C@H]21` [Example 55, 4-((3-((1S,5S,6S)-3-amino-1-(hydroxymethyl)-5-methyl-2-thia-4-azabicyclo[4.1.0]hept-3-en-5-yl)-4,5-difluorophenyl)amino)pyrido[3,2-d]pyrimidine-7-carbonitrile], the IC50 was determined as 0.014 µM at human recombinant BACE2, 0.00457 µM in test [1], 227 µM on Recombinant Cat D and 0.00399 µM at human recombinant BACE1.

Regarding `N#Cc1cnc2c(Nc3cc(F)c(F)c([C@@]4(CF)N=C(N)S[C@]5(CO)C[C@@H]54)c3)nccc2c1` [Example 57, 8-((3-((1R,5S,6R)-3-amino-5-(fluoromethyl)-1-(hydroxymethyl)-2-thia-4-azabicyclo[4.1.0]hept-3-en-5-yl)-4,5-difluorophenyl)amino)-1,7-naphthyridine-3-carbonitrile], the IC50 was 0.0235 µM at human recombinant BACE2, 0.0225 µM in test [1], 29.5 µM at Recombinant Cat D and 0.00563 µM at human recombinant BACE1.

Take `COc1cnc2c(Nc3cc(F)c(F)c([C@@]4(C)N=C(N)S[C@@]5(CO)C[C@H]54)c3)ncnc2c1` [Example 58, ((1S,5S,6S)-3-amino-5-(2,3-difluoro-5-((7-methoxypyrido[3,2-d]pyrimidin-4-yl)amino)phenyl)-5-methyl-2-thia-4-azabicyclo[4.1.0]hept-3-en-1-yl)methanol]: the IC50 at human recombinant BACE2 came out at 0.0308 µM; in test [1], 0.00306 µM; at Recombinant Cat D, 975 µM; on human recombinant BACE1, 0.00397 µM.

As for `NC1=N[C@](CF)(c2cc(NC(=O)c3ccc(Cl)cn3)cc(F)c2F)[C@@H]2C[C@]2(CF)S1` [Example 59, N-(3-((1S,5S,6S)-3-amino-1,5-bis(fluoromethyl)-2-thia-4-azabicyclo[4.1.0]hept-3-en-5-yl)-4,5-difluorophenyl)-5-chloro-2-pyridinecarboxamide], the IC50 on human recombinant BACE2 was < 0.00203 µM; in test [1], 0.0229 µM; at Recombinant Cat D, > 400 µM; at human recombinant BACE1, 0.00114 µM.

For `C[C@]1(c2cc(Nc3nccc4cc(C#N)cnc34)cc(F)c2F)N=C(N)S[C@@]2(CF)C[C@H]21` [Example 60, 8-((3-((1S,5S,6S)-3-amino-1-(fluoromethyl)-5-methyl-2-thia-4-azabicyclo[4.1.0]hept-3-en-5-yl)-4,5-difluorophenyl)amino)-1,7-naphthyridine-3-carbonitrile], the half-maximal inhibitory concentration (IC50) on human recombinant BACE2 amounted to 0.00174 µM; in test [1], 0.00767 µM; at Recombinant Cat D, 204 µM; at human recombinant BACE1 it was 0.00135 µM.

On to `C#CCOc1cnc(C(=O)Nc2cc(F)c(F)c([C@@]3(C)N=C(N)S[C@@]4(CO)C[C@H]43)c2)cn1` [Example 61, N-(3-((1S,5S,6S)-3-amino-1-(hydroxymethyl)-5-methyl-2-thia-4-azabicyclo[4.1.0]hept-3-en-5-yl)-4,5-difluorophenyl)-5-(2-propyn-1-yloxy)-2-pyrazinecarboxamide], for which the IC50 at human recombinant BACE2 is 0.0201 µM; in test [1] it was 0.00035 µM; at Recombinant Cat D it was 59.7 µM; at human recombinant BACE1 it was 0.0003 µM.

`COc1cnc2c(Nc3cc(F)c(F)c([C@@]4(CF)N=C(N)S[C@H]5C[C@H]54)c3)nccc2n1` [Example 62, N-(3-((1S,5S,6S)-3-amino-5-(fluoromethyl)-2-thia-4-azabicyclo[4.1.0]hept-3-en-5-yl)-4,5-difluorophenyl)-2-methoxypyrido[3,4-b]pyrazin-5-amine]: the IC50 at human recombinant BACE2 was determined as 0.0885 µM; in test [1], 0.14 µM; at Recombinant Cat D, 295 µM; on human recombinant BACE1 it was 0.0289 µM.

With `CC(C)Oc1cnc2c(Nc3cc(F)c(F)c([C@@]4(CF)N=C(N)S[C@H]5C[C@H]54)c3)nccc2n1` [Example 63, N-(3-((1S,5S,6S)-3-amino-5-(fluoromethyl)-2-thia-4-azabicyclo[4.1.0]hept-3-en-5-yl)-4,5-difluorophenyl)-2-(1-methylethoxy)pyrido[3,4-b]pyrazin-5-amine], the IC50 at human recombinant BACE2 stood at 3.75 µM; in test [1], 4.65 µM; on Recombinant Cat D, 494 µM; on human recombinant BACE1, 0.137 µM.

In the case of `COc1cnc2c(Nc3cc(F)c(F)c([C@@]4(C)N=C(N)S[C@@]5(CF)C[C@H]54)c3)ncnc2c1` [Example 64, (1S,5S,6S)-5-(2,3-difluoro-5-((7-methoxypyrido[3,2-d]pyrimidin-4-yl)amino)phenyl)-1-(fluoromethyl)-5-methyl-2-thia-4-azabicyclo[4.1.0]hept-3-en-3-amine], the IC50 on human recombinant BACE2 is 0.025 µM; in test [1] it was 0.00281 µM; on Recombinant Cat D, 268 µM; on human recombinant BACE1, 0.00448 µM.

Take `COC[C@]12C[C@H]1[C@@](C)(c1cc(Nc3ncnc4cc(OC)cnc34)cc(F)c1F)N=C(N)S2` [Example 65, N-(3-((1S,5S,6S)-3-amino-1-(methoxymethyl)-5-methyl-2-thia-4-azabicyclo[4.1.0]hept-3-en-5-yl)-4,5-difluorophenyl)-7-methoxypyrido[3,2-d]pyrimidin-4-amine]: the IC50 on human recombinant BACE2 came out at 0.0836 µM; in test [1], 0.00781 µM; at Recombinant Cat D, 1230 µM; on human recombinant BACE1, 0.0133 µM.

As to `COc1cnc2c(Nc3cc(F)c(F)c([C@@]4(CF)N=C(N)S[C@H]5C[C@H]54)c3)ncnc2c1` [Example 66, N-(3-((1S,5S,6S)-3-amino-5-(fluoromethyl)-2-thia-4-azabicyclo[4.1.0]hept-3-en-5-yl)-4,5-difluorophenyl)-7-methoxypyrido[3,2-d]pyrimidin-4-amine], the IC50 at human recombinant BACE2 was 0.132 µM; in test [1], 0.0525 µM; at Recombinant Cat D it was > 400 µM; on human recombinant BACE1 it was 0.0171 µM.

Take `C[C@]1(c2cc(NC(=O)c3ccc(Cl)cn3)ccc2F)N=C(N)S[C@@H]2[C@H]1C2(F)F` [Example 69, N-(3-((1R,5S,6R)-3-amino-7,7-difluoro-5-methyl-2-thia-4-azabicyclo[4.1.0]hept-3-en-5-yl)-4-fluorophenyl)-5-chloro-2-pyridinecarboxamide]: the IC50 stood at 0.00302 µM at human recombinant BACE2, 0.114 µM in test [1], 939 µM on Recombinant Cat D and 0.0152 µM on human recombinant BACE1.

For the compound `Cc1cc(C#N)cnc1C(=O)Nc1cc(F)c(F)c([C@@]2(CF)N=C(N)S[C@@]3(CO)C[C@H]32)c1` [Example 70, N-(3-((1S,5S,6S)-3-amino-5-(fluoromethyl)-1-(hydroxymethyl)-2-thia-4-azabicyclo[4.1.0]hept-3-en-5-yl)-4,5-difluorophenyl)-5-cyano-3-methyl-2-pyridinecarboxamide], the IC50 is 0.00247 µM at human recombinant BACE2, 0.0035 µM in test [1], > 400 µM at Recombinant Cat D and 0.00116 µM at human recombinant BACE1.

As to `C#CCOc1ccc(C(=O)Nc2cc(F)c(F)c([C@@]3(C)N=C(N)S[C@@]4(CO)C[C@H]43)c2)nc1` [Example 71, N-(3-((1S,5S,6S)-3-amino-1-(hydroxymethyl)-5-methyl-2-thia-4-azabicyclo[4.1.0]hept-3-en-5-yl)-4,5-difluorophenyl)-5-(2-propyn-1-yloxy)-2-pyridinecarboxamide], the IC50 on human recombinant BACE2 was 0.0375 µM; in test [1] it was 0.00156 µM; on Recombinant Cat D it was 329 µM; at human recombinant BACE1 it was 0.00047 µM.

As to `COC[C@]12C[C@H]1[C@@](CF)(c1cc(Nc3ncnc4cc(Cl)cnc34)ccc1F)N=C(N)S2` [Example 73, N-(3-((1S,5S,6S)-3-amino-5-(fluoromethyl)-1-(methoxymethyl)-2-thia-4-azabicyclo[4.1.0]hept-3-en-5-yl)-4-fluorophenyl)-7-chloropyrido[3,2-d]pyrimidin-4-amine], the IC50 is 0.00296 µM on human recombinant BACE2, 0.0177 µM in test [1], > 400 µM at Recombinant Cat D and 0.00911 µM at human recombinant BACE1.

With `COc1cnc(C(=O)Nc2ccc(F)c([C@@]3(CF)N=C(N)S[C@@]4(CO)C[C@H]43)c2)c(C)n1` [Example 75, N-(3-((1S,5S,6S)-3-amino-5-(fluoromethyl)-1-(hydroxymethyl)-2-thia-4-azabicyclo[4.1.0]hept-3-en-5-yl)-4-fluorophenyl)-5-methoxy-3-methyl-2-pyrazinecarboxamide], the IC50 is 0.0295 µM on human recombinant BACE2, 0.0136 µM in test [1], > 400 µM on Recombinant Cat D and 0.012 µM at human recombinant BACE1.

For `C#CCOc1cnc(C(=O)Nc2ccc(F)c([C@@]3(CF)N=C(N)S[C@@]4(CO)C[C@H]43)c2)c(C)n1` [Example 76, N-(3-((1S,5S,6S)-3-amino-5-(fluoromethyl)-1-(hydroxymethyl)-2-thia-4-azabicyclo[4.1.0]hept-3-en-5-yl)-4-fluorophenyl)-3-methyl-5-(2-propyn-1-yloxy)-2-pyrazinecarboxamide], the IC50 on human recombinant BACE2 is 0.0174 µM; in test [1] it was 0.00271 µM; at Recombinant Cat D, 1490 µM; on human recombinant BACE1, 0.00095 µM.
